Experimental findings from patent publication US20140045823A1 (Neurocrine Biosciences, Inc., priority 2012, published 2014) are described below.

Each structure is given as a SMILES string.

The experiment concerns the target T1, human GPR119 (Homo sapiens, UniProt Q8TDV5).
T1 construct: expression vector for human GPR119 cDNA (Acc. No. NP_848566); expressed in transfected cells; Min-6/hGPR119
T1 sequence (Q8TDV5 1-335): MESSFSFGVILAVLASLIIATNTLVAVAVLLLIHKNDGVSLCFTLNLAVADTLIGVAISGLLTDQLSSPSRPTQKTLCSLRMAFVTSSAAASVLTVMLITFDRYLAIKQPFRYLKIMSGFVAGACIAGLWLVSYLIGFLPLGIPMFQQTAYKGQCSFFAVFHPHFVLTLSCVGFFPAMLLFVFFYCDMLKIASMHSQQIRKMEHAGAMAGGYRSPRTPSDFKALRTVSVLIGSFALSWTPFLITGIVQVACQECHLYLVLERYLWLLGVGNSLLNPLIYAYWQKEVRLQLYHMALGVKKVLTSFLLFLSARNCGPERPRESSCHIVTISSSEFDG
As to the kind of experiment: AlphaScreen cAMP assay in MIN6 cells stably transfected with human GPR119. It is filed as cell-based. The note with it: Min-6/hGPR119 cells, 45 min at room temperature. In a few lines:
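cAMP accumulation quantified by AlphaScreen after 45 min compound stimulation at about 20 °C. Stimulation buffer: pH 7.4 HEPES saline with 0.5 mM IBMX, 0.1% BSA, 1% DMSO final. Cells: MIN6 stably transfected with human GPR119, 10000/well, cultured 24 h beforehand.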
(In general: In Alpha technology, singlet oxygen from a donor bead excites a nearby acceptor bead.)
What is called EC50 is the concentration that produces a half-maximal response. Read a high EC50 as a need for much substance. As to `CN(CCC#N)C(=O)c1ccc(-c2ncc(C(=O)N(C3CC3)C3CCN(C(=O)OC(C)(C)C)CC3)cn2)cc1F` [Example 234, 4-[(2-{4-[(2-Cyano-ethyl)-methyl-carbamoyl]-3-fluoro-phenyl}-pyrimidine-5-carbonyl)-cyclopropyl-amino]-piperidine-1-carboxylic acid tert-butyl ester], the EC50 stood at 297 nM. On to `Cc1cnc(CNC(=O)c2ccc(-c3ncc(C(=O)N(C4CC4)C4CCN(C(=O)OC(C)(C)C)CC4)cn3)cc2)s1` [Example 246, 4-[Cyclopropyl-(2-{4-[(5-methyl-thiazol-2-ylmethyl)-carbamoyl]-phenyl}-pyrimidine-5-carbonyl)-amino]-piperidine-1-carboxylic acid tert-butyl ester], for which the EC50 worked out at 169 nM. The value for `CC(C)(C)OC(=O)N1CCC(N(C(=O)c2cnc(-c3ccc(C(=O)NCc4ccncc4)c(F)c3)nc2)C2CC2)CC1` [Example 126, 4-[Cyclopropyl-(2-{3-fluoro-4-[(pyridin-4-ylmethyl)-carbamoyl]-phenyl}-pyrimidine-5-carbonyl)-amino]-piperidine-1-carboxylic acid tert-butyl ester] was 99 nM. The compound `CC(C)(C)OC(=O)N1CCC(N(C(=O)c2ncc(-c3ccc(S(C)(=O)=O)cc3)o2)C2CC2)CC1` [Example 36, 4-{Cyclopropyl-[5-(4-methanesulfonyl-phenyl)-oxazole-2-carbonyl]-amino}-piperidine-1-carboxylic acid tert-butyl ester] returned an EC50 of 358 nM. On to `COCC(C)N(C)C(=O)c1ccc(-c2ncc(C(=O)N(C3CC3)C3CCN(C(=O)OC(C)(C)C)CC3)cn2)cc1` (stereo not shown) [Example 172, 4-[Cyclopropyl-(2-{4-[(2-methoxy-1-methyl-ethyl)-methyl-carbamoyl]-phenyl}-pyrimidine-5-carbonyl)-amino]-piperidine-1-carboxylic acid tert-butyl ester], for which the half-maximal effective concentration (EC50) turned out to be 226 nM.

The compound `CC(C)(C)OC(=O)N1CCC(N(C(=O)c2ccc(-c3ccc(S(C)(=O)=O)cc3)nc2)C2CC2)CC1` [Example 1, 4-{Cyclopropyl-[6-(4-methanesulfonyl-phenyl)-pyridine-3-carbonyl]-amino}-piperidine-1-carboxylic acid tert-butyl ester] yielded a concentration giving a half-maximal response (EC50) of 82 nM. In the case of `CC(C)(O)CNC(=O)c1ccc(-c2ncc(C(=O)N(C3CC3)C3CCN(C(=O)OC(C)(C)C)CC3)cn2)cc1F` [Example 154, 4-(Cyclopropyl-{2-[3-fluoro-4-(2-hydroxy-2-methyl-propylcarbamoyl)-phenyl]-pyrimidine-5-carbonyl}-amino)-piperidine-1-carboxylic acid tert-butyl ester], the EC50 was found to be 508 nM.

Take `CC(C)(C)OC(=O)N1CCC(N(C(=O)c2cnc(-c3ccc(C(=O)Nc4ccn[nH]4)cc3)nc2)C2CC2)CC1` [Example 208, 4-(Cyclopropyl-{2-[4-(2H-pyrazol-3-ylcarbamoyl)-phenyl]-pyrimidine-5-carbonyl}-amino)-piperidine-1-carboxylic acid tert-butyl ester]: the EC50 was 181 nM. Consider `Cc1cc(C)n(-c2ncc(C(=O)N(C3CC3)C3CCN(C(=O)OC(C)(C)C)CC3)cn2)n1` [Example 57, 4-{Cyclopropyl-[2-(3,5-dimethyl-pyrazol-1-yl)-pyrimidine-5-carbonyl]-amino}-piperidine-1-carboxylic acid tert-butyl ester], for which the half-maximal effective concentration (EC50) worked out at 3750 nM. `CC(C)OC(=O)N1CCC(N(C(=O)c2cnc(-c3ccc(CC#N)cc3)nc2)C2CC2)CC1` [Example 60, 4-{[2-(4-Cyanomethyl-phenyl)-pyrimidine-5-carbonyl]-cyclopropyl-amino}-piperidine-1-carboxylic acid isopropyl ester] yielded an EC50 of 76 nM. In the case of `COC1CCN(C(=O)c2ccc(-c3ncc(C(=O)N(C4CC4)C4CCN(C(=O)OC(C)(C)C)CC4)cn3)c(F)c2)CC1` [Example 133, 4-(Cyclopropyl-{2-[2-fluoro-4-(4-methoxy-piperidine-1-carbonyl)-phenyl]-pyrimidine-5-carbonyl}-amino)-piperidine-1-carboxylic acid tert-butyl ester], the concentration giving a half-maximal response (EC50) was 516 nM. Consider `CC(C)(C)OC(=O)N1CCC(N(C(=O)c2cnc(-c3ccc(C#N)c(F)c3)o2)C2CC2)CC1` [Example 32, 4-{[2-(4-Cyano-3-fluoro-phenyl)-oxazole-5-carbonyl]-cyclopropyl-amino}-piperidine-1-carboxylic acid tert-butyl ester], for which the EC50 is 35 nM. Consider `CC(C)(C)OC(=O)N1CCC(N(C(=O)c2cnc(-c3ccc(C(=O)NCc4ccccn4)cc3)nc2)C2CC2)CC1` [Example 224, 4-[Cyclopropyl-(2-{4-[(pyridin-2-ylmethyl)-carbamoyl]-phenyl}-pyrimidine-5-carbonyl)-amino]-piperidine-1-carboxylic acid tert-butyl ester], for which the EC50 amounted to 157 nM. For the compound `CO[C@@H]1CCN(C(=O)c2ccc(-c3ncc(C(=O)N(C4CC4)C4CCN(C(=O)OC(C)(C)C)CC4)cn3)cc2)C1` [Example 179, 4-(Cyclopropyl-{2-[4-(3-methoxy-pyrrolidine-1-carbonyl)-phenyl]-pyrimidine-5-carbonyl}-amino)-piperidine-1-carboxylic acid tert-butyl ester], the response was half-maximal at 338 nM (EC50). `CC(C)(C)OC(=O)N1CCC(N(C(=O)c2cnc(-c3ccc(C(=O)N4CCC[C@@H]4C#N)c(F)c3)nc2)C2CC2)CC1` [Example 161, 4-({2-[4-(2-Cyano-pyrrolidine-1-carbonyl)-3-fluoro-phenyl]-pyrimidine-5-carbonyl}-cyclopropyl-amino)-piperidine-1-carboxylic acid tert-butyl ester] had a concentration for a half-maximal effect (EC50) of 278 nM. `CC(C)(C)OC(=O)N1CCC(N(C(=O)c2noc(-c3ccc(S(C)(=O)=O)c(F)c3)n2)C2CC2)CC1` [Example 21, 4-{Cyclopropyl-[5-(3-fluoro-4-methanesulfonyl-phenyl)-[1,2,4]oxadiazole-3-carbonyl]-amino}-piperidine-1-carboxylic acid tert-butyl ester]: a half-maximal effect (EC50) was put at 33 nM. Regarding `COC1CN(C(=O)c2ccc(-c3ncc(C(=O)N(C4CC4)C4CCN(C(=O)OC(C)(C)C)CC4)cn3)cc2F)C1` [Example 137, 4-(Cyclopropyl-{2-[3-fluoro-4-(3-methoxy-azetidine-1-carbonyl)-phenyl]-pyrimidine-5-carbonyl}-amino)-piperidine-1-carboxylic acid tert-butyl ester], the midpoint of the response, the EC50, lay at 264 nM.

As to `CN(Cc1cccnc1)C(=O)Cc1ccc(-c2ncc(C(=O)N(C3CC3)C3CCN(C(=O)OC(C)(C)C)CC3)cn2)cc1` [Example 236, 4-[Cyclopropyl-(2-{4-[(methyl-pyridin-3-ylmethyl-carbamoyl)-methyl]-phenyl}-pyrimdine-5-carbonyl)-amino]-piperidine-1-carboxylic acid tert-butyl ester], the EC50 turned out to be 317 nM.

In the case of `CC(C)(C)OC(=O)N1CCC(N(C(=O)c2cnc(-c3ccc(C(=O)NCCS(C)(=O)=O)c(F)c3)nc2)C2CC2)CC1` [Example 123, 4-(Cyclopropyl-{2-[3-fluoro-4-(2-methanesulfonyl-ethylcarbamoyl)-phenyl]-pyrimidine-5-carbonyl}-amino)-piperidine-1-carboxylic acid tert-butyl ester], the EC50 is 637 nM.
